# Reference: patent publication US8822533B1, “Methods and compositions for repelling and/or killing insects” (The United States of America, as represented by the …, priority 2011, dated 2014)
# How the values were obtained:
# [1] = tested on: bed bugs (Cimex lectularius); assay: Bed bug mortality on treated filter paper; assay type: in vivo; conditions: 24 h
# [2] = tested on: bed bugs (Cimex lectularius); assay: Bed bug mortality on treated filter paper; assay type: in vivo; conditions: Cimex lectularius, 24 h
# Method: Knockdown data and mortality for volatile pyrethroids against bed bugs (Cimex lectularius): Compounds were dissolved in acetone to yield concentrations of 100 μg/cm^2, 10 μg/cm^2, and 1 μg/cm^2 and 47 mm filter paper disks were treated. Acetone-treated filter paper was used as a negative control. Mixed stages (nymphs and adults) of a laboratory colony of the bed bug Cimex lectularius were placed on the treated filter paper in glass Petri dishes and mortality was recorded 24 h later, at which time bed bugs were removed to untreated surfaces. 24 h after this transfer another assessment of mortality was made to see if any dead or moribund bugs had recovered.
# Ae. aegypti mosquitoes = assay: Sleeve bite protection assay on treated uniform fabric, mosquitoes; assay type: in vivo, Aedes aegypti (Orlando, 1952)
# Method: Biological Evaluation: Bite protection assays were conducted with laboratory-reared 7-12 day old mosquitoes or sand flies. The species used throughout these studies are Aedes aegypti (Orlando, 1952) and Phlebotomus papatasi sand flies (Jerusalem, 1983). Females were pre-selected using either a hand draw box or a mechanical aspirator. An assay was conducted by wearing sewn sleeves made from clothing material. Treated specimens were assayed with untreated controls to correct for the bite resistance afforded by material construction and composition. The untreated control was tested at the beginning of the experiment, followed by successively higher candidate repellent concentrations on sleeves. Sleeves were sewn from a cut out single ply trapezoidal pattern (33.2 cm×21 cm×25.5 cm height) of material. […] Permethrin was 35:65cis: trans, 95.85% technical material. Experimental repellents were received as neat samples with <5% impurities. The treatment occurred by dissolution of repellent in suitable quantity of acetone to saturate the clothing, but minimizing excess solution. Excess solution was quantified and this amount of excess was then used to calculate the estimated amount of repellent applied to the material. […] The photoperiod was 12:12. The mosquito cages were approximately 60000 cm^3 and each contained 175 to 225 female mosquitoes. […] Cages for sand fly work were slightly smaller (15000 cm^3) and constructed of acrylic for filming purposes and with screens on the exterior edges to allow air flow through the system. About 20-40 sand flies were released in cages for each assay. Assays started when the sleeved arm was inserted through the sleeve into the cage. Normally the hand was protected by a glove, but there were situations (i.e. sand fly data presented here) when the ability of a repellent to protect the untreated hand was determined. The assay periods were 15 min for the mosquitoes and 25-30 minutes for sand flies. The insects were allowed to land, probe and possibly bloodfeed during this time. At the conclusion of the experiment, all insects were knocked down or aspirated and the percentage that bloodfed of the total female test population in the cage was recorded. The protect level was calculated by Abbott's formula as a percentage reduction in bites compared to the untreated fabric control sleeve. Specific conditions for bioassays are noted with corresponding data contained in the Tables.
# [3] = tested on: Mosquitoes, either Aedes aegypti (Liverpool) or Anopheles stephensi Liston; assay: K&D module in vitro bioassay: biting protection, knockdown and mortality; assay type: in vivo
# Method: In vitro bioassays were conducted as described by Klun et. al. (Klun, J. A., et al., J. Med. Entomol., 40: 293-299 (2005)). Each test replicate consisted of 3 treatments: a control (EtOH); a standard (Deet, 4.54 nmol/μl); and an experimental compound (pyrethroid analogs, 4.54 nmol/ul). The 3 treatments were randomly assigned to consecutive cells in 2, 6-cell reservoirs connected in series to a single water-bath pump; thus, 4 replicates could be tested/run. Tests were performed in an Air Science USA hood, with an air movement velocity of approx. 110-120 ft./min., temperature of 25-27° C., and RH of 15-25%. A 6-celled reservoir was connected to and heated by a constant-temperature (38° C.) water circulator (Lauda E100, Wobser GMGH and Co., Konigshofell, Germany).
# Prior to each test, the upper surface of each reservoir was coated with a thin layer of high-vacuum silicone grease (Dow Corning Corp., Midland, Mich.), and the cells then filled (approx. 6 ml. capacity) or topped-off with either: (1) expired human red blood cells suspended in citrate-phosphate-dextrose-adenine (CPDA) solution, not more than 1 month past expiration date, and to which 110 mg ATP/35 ml. blood-CPDA had been added on the day of testing; or (2) CPDA+ATP×^−3, usually made up or diluted to 10^−3 ATP on the day of testing. The filled cells were then covered with an Edicol collagen membrane (Devro, Sandy Run, S.C.) strip, and then with a just-treated (110 μl of 4.54 nmol/μl treatment or control solution) organdy cloth (G Street Fabrics, Rockville, Md.) strip. Mosquitoes used in tests were either Aedes aegypti_(Liverpool) or Anopheles stephensi_Liston. K&D modules containing 5 adult females/cell were placed over a Teflon separator atop each reservoir; the sliding floors opened allowing access to the treated organdy cloth and membrane-covered cell; and the number of mosquitoes biting (proboscis inserted through the cloth) and/or observed to be engorged within each cell at the end of a 3-5 min. exposure period was recorded. Mosquitoes were used only once in a test, and then frozen and discarded.
# Only tests in which 3 or more females fed in the control cell were analyzed, as lower feeding rates are indicative of substandard feeding readiness of that group of mosquitoes.
# […] Data were collected to record knockdown in 6 minutes, one hour and 24 hours post exposure.
# [4] = tested on: Ae. aegypti + An. albimanus; assay: Bite protection of FRACUs (Defender-M) treated with insecticides; assay type: in vivo; conditions: FRACU (Defender-M) sleeve; allethrin 0.085, bioresmethrin 0.106, etofenprox 0.101, bifenthrin 0.101 mg/cm^2
# Method: Biological Evaluation: Bite protection assays were conducted with laboratory-reared 7-12 day old mosquitoes or sand flies. The species used throughout these studies are Aedes aegypti (Orlando, 1952) and Phlebotomus papatasi sand flies (Jerusalem, 1983). Females were pre-selected using either a hand draw box or a mechanical aspirator.
# An assay was conducted by wearing sewn sleeves made from clothing material. Treated specimens were assayed with untreated controls to correct for the bite resistance afforded by material construction and composition. The untreated control was tested at the beginning of the experiment, followed by successively higher candidate repellent concentrations on sleeves. Sleeves were sewn from a cut out single ply trapezoidal pattern (33.2 cm×21 cm×25.5 cm height) of material. Sleeves were normally with a candidate repellent at the EPA permethrin label rate of 0.52% weight on (+5% tolerance) or less (0.125 mg/cm^2 for the 50/50 Nylon/Cotton (NYCO) Army Combat Uniform and 0108 mg./cm2 for the 65% Rayon/25% Para-aramid/10% Nylon Fire-Resistant Army Combat Uniform). Permethrin was 35:65cis: trans, 95.85% technical material. Experimental repellents were received as neat samples with <5% impurities. The treatment occurred by dissolution of repellent in suitable quantity of acetone to saturate the clothing, but minimizing excess solution. Excess solution was quantified and this amount of excess was then used to calculate the estimated amount of repellent applied to the material.
# Insects were maintained in colony at approximately 78° F. and 60-80% RH. The photoperiod was 12:12. The mosquito cages were approximately 60000 cm^3 and each contained 175 to 225 female mosquitoes. […] Cages for sand fly work were slightly smaller (15000 cm^3) and constructed of acrylic for filming purposes and with screens on the exterior edges to allow air flow through the system. About 20-40 sand flies were released in cages for each assay. Assays started when the sleeved arm was inserted through the sleeve into the cage. Normally the hand was protected by a glove, but there were situations (i.e. sand fly data presented here) when the ability of a repellent to protect the untreated hand was determined. The assay periods were 15 min for the mosquitoes and 25-30 minutes for sand flies. The insects were allowed to land, probe and possibly bloodfeed during this time. At the conclusion of the experiment, all insects were knocked down or aspirated and the percentage that bloodfed of the total female test population in the cage was recorded. The protect level was calculated by Abbott's formula as a percentage reduction in bites compared to the untreated fabric control sleeve.
# We were able to examine several treatments on the FRACU fabric sleeves (Table 7). […]
# [5] = ACU sleeve, stored one year then tested, concentrations as E1
compound,measurement,setting,value
CC(C)=C[C@@H]1[C@@H](C(=O)OCc2c(F)c(F)c(C)c(F)c2F)C1(C)C [TL-I-105],mortality at 5 µg/cm2,[1],100%
same,mortality at 1 µg/cm2,[2],10%
same,mortality at 10 µg/cm2,[2],100%
same,mortality at 100 µg/cm2,[2],100%
same,Blood-fed #,"Ae. aegypti mosquitoes; ACU (50/50 NYCO) sleeve, glove on hand, 15 min, permethrin 0.118, transfluthrin 0.108, TL-I-107 0.107, TL-I-141 0.109, TL-I-105 0.107, TL-I-73 0.102 mg/cm^2",0 #
same,Bite Protection (%),"Ae. aegypti mosquitoes; ACU (50/50 NYCO) sleeve, glove on hand, Abbott's formula vs untreated sleeve, concentrations as E1",100%
same,Fed (%),"Ae. aegypti mosquitoes; ACU (50/50 NYCO) sleeve, glove on hand, concentrations as E1",0.0%
same,Bite Protection (%),Ae. aegypti mosquitoes; [5],100%
same,Fed (%),Ae. aegypti mosquitoes; [5],0.0%
same,Blood-fed #,"Ae. aegypti mosquitoes; ACU sleeve, treated specimens stored in refrigerator for one year then tested, concentrations as E1",0 #
same,Knockdown 6 min (%),"[3]; 2.5 nM\cm^2, K&D module",98%
same,Knockdown 24 hours (%),"[3]; 2.5 nM\cm^2, K&D module",100%
same,Not feeding 3 minutes (%),"[3]; 2.5 nM\cm^2, K&D module",100%
same,Knockdown 1 hour (%),"[3]; 2.5 nmol/cm^2, K&D module",100%
same,Knockdown 6 min (%),"[3]; 25 nM\cm^2, K&D module",100%
same,Knockdown 24 hours (%),"[3]; 25 nM\cm^2, K&D module",100%
same,Not feeding 3 minutes (%),"[3]; 25 nM\cm^2, K&D module",100%
same,Knockdown 1 hour (%),"[3]; 25 nmol/cm^2, K&D module",100%
same,mortality at 0.0025 µM,"[3]; Aedes aegypti, 24 h",100%
same,mortality at 0.025 µM,"[3]; Aedes aegypti, 48 h",100%
Cc1c(COC(=O)[C@@H]2[C@H](/C=C(\Cl)C(F)(F)F)C2(C)C)cccc1-c1ccccc1 (racemic) [Bifenthrin],Bite Protection (% ± SE) (Ae. aegypti + An. albimanus),[4],91.5 ± 1.1%
CC(C)=C[C@@H]1[C@@H](C(=O)OCc2coc(Cc3ccccc3)c2)C1(C)C [Bioresmethrin],Bite Protection (% ± SE) (Ae. aegypti + An. albimanus),[4],98.1 ± 0.8%
